Reference: US20100168084A1, “Therapeutic compounds and related methods of use” (priority 2008, published 2010)
Where two headings read alike, the source gives them in different places.

Tests used:
HDAC = conditions: literature statements; cited from earlier work
sirtuin protein = target: T1, sirtuin protein (Homo sapiens, UniProt Q96EB6); assay: MS assay (IC50 MS ASSAY / ED50 MS / FOLD ACTIVATION MS); assay type: biochemical; set-up: scale not given here
T1 sequence (Q96EB6 2-747 limits assumed): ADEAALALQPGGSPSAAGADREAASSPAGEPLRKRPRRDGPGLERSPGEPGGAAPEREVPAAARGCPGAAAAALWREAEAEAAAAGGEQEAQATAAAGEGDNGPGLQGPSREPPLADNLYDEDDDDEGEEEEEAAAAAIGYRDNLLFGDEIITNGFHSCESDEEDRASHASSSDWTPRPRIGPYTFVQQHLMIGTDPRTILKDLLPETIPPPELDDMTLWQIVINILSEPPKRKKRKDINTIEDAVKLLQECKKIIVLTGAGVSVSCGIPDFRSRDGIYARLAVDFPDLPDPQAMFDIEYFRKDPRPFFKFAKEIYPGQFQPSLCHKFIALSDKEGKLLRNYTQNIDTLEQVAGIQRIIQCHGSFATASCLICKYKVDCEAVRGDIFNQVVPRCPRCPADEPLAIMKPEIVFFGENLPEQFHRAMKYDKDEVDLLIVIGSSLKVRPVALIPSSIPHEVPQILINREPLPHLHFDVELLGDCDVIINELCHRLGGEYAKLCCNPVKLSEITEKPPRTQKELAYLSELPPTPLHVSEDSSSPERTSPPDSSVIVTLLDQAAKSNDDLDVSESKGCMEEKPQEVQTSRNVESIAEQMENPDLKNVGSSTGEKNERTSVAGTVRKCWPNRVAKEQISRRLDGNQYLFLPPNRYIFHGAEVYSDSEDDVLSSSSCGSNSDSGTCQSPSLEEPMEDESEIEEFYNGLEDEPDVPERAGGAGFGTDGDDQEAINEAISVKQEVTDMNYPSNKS

[1] = topical; cited from earlier work
[2] = Table 4, class symbols A′, A, B, D, NA, legend not given
[3] = class symbols (A′, A, B, D, NA), no legend given
[4] = MS assay, class symbols, key not given
[5] = Table 4, class symbols A′, A, B, C, NA, legend not given

ED50 MS ASSAY (sirtuin protein) | ED50 MS ASSAY (sirtuin protein; Table 4) | ED50 MS ASSAY (sirtuin protein; Table 4, class symbols) | ED50 MS ASSAY (sirtuin protein; [2]) | ED50 MS ASSAY (sirtuin protein; [3]) | ED50 MS ASSAY (sirtuin protein; [4]) | ED50 MS ASSAY (sirtuin protein; [5]) | ED50 MS ASSAY (sirtuin protein; TABLE 4) | Compound | inhibition of HDAC (HDAC) | time for IOP to fall [1] | time of peak effects on IOP [1]
A′ | A′ | A′ | A′ | A′ | – | – | – | O=C(Nc1ccccc1-c1cn2c(CN3CCNCC3)csc2n1)c1cnc2ccccc2c1 [Compound 645] | – | – | –
A′ | A′ | A′ | A′ | A′ | – | – | – | CC(=O)N1CCN(Cc2csc3nc(-c4ccccc4NC(=O)c4cnc5ccccc5n4)cn23)CC1 [Compound 651] | – | – | –
A′ | A′ | A′ | A′ | A′ | – | – | – | O=C(Nc1ccccc1-c1cn2c(CCN3CCNCC3)csc2n1)c1cnc2ccccc2n1 [Compound 680] | – | – | –
A′ | A′ | – | – | – | A′ | A′ | A′ | O=C(Nc1ccccc1-c1cn2c(CN3CCNCC3)csc2n1)c1cc(F)cc(F)c1 [Compound 695] | – | – | –
A′ | A′ | – | – | – | A′ | A′ | A′ | O=C(Nc1ccccc1-c1cn2c(CN3CCNCC3)csc2n1)c1cccc(OC(F)(F)F)c1 [Compound 698] | – | – | –
A′ | A′ | – | – | – | A′ | A′ | A′ | O=C(Nc1ccccc1-c1cn2c(CN3CCNCC3)csc2n1)c1ccc(-c2ccccc2)cc1 [Compound 708] | – | – | –
A′ | A′ | – | – | – | A′ | A′ | A′ | O=C(Nc1ccccc1-c1cn2c(CN3CCNCC3)csc2n1)c1cccc(-c2ccccc2)c1 [Compound 710] | – | – | –
A′ | A′ | – | – | – | A′ | A′ | A′ | O=C(Nc1ccccc1-c1cn2c(CN3CCSC3)csc2n1)c1cnc2ccccc2n1 [Compound 715] | – | – | –
A′ | A′ | – | – | – | A′ | A′ | A′ | NC1CCN(Cc2csc3nc(-c4ccccc4NC(=O)c4cnc5ccccc5n4)cn23)CC1 [Compound 716] | – | – | –
A′ | A′ | – | – | – | A′ | A′ | A′ | Cc1ccc(C(=O)Nc2ccccc2-c2nc3ccc(CN4CCNCC4)nc3s2)cc1C [Compound 727] | – | – | –
A′ | A′ | – | – | – | A′ | A′ | A′ | O=C(Nc1ccccc1-c1cn2c(CN3CCNCC3)csc2n1)c1cccc(-c2cc[nH]n2)c1 [Compound 733] | – | – | –
A′ | A′ | – | – | – | A′ | A′ | A′ | COc1ccc(-c2cc(C(=O)Nc3ccccc3-c3cn4c(CN5CCNCC5)csc4n3)[nH]n2)cc1 [Compound 735] | – | – | –
A′ | A′ | – | – | – | A′ | A′ | A′ | COc1ccc(-c2ccc(C(=O)Nc3ccccc3-c3cn4c(CN5CCNCC5)csc4n3)o2)cc1 [Compound 736] | – | – | –
A′ | A′ | – | – | – | A′ | A′ | A′ | O=C(Nc1ccccc1-c1cn2c(CN3CCNCC3)csc2n1)c1cccc(SC(F)F)c1 [Compound 737] | – | – | –
A′ | A′ | – | – | – | A′ | A′ | A′ | Cc1csc2nc(-c3ccccc3NC(=O)c3cccc(N(C)C)c3)cn12 [Compound 740] | – | – | –
A′ | A′ | – | – | – | A′ | A′ | A′ | O=C(Nc1ccccc1-c1cn2c(CN3CCSCC3)csc2n1)c1cnc2ccccc2n1 [Compound 742] | – | – | –

Second part, the compound before the results:

Compound | ED50 MS ASSAY (sirtuin protein) | ED50 MS ASSAY (sirtuin protein; Table 4) | ED50 MS ASSAY (sirtuin protein; Table 4, class symbols) | ED50 MS ASSAY (sirtuin protein; [2]) | ED50 MS ASSAY (sirtuin protein; [3]) | ED50 MS ASSAY (sirtuin protein; [4]) | ED50 MS ASSAY (sirtuin protein; [5]) | ED50 MS ASSAY (sirtuin protein; TABLE 4) | inhibition of HDAC (HDAC) | time for IOP to fall [1] | time of peak effects on IOP [1]
O=C(/C=C/c1cccc(C(=O)NO)c1)NO [CBHA, m-carboxy-cinnamic acid bishydroxamic acid] | – | – | – | – | – | – | – | – | inhibit HDAC at micromolar concentration or lower | – | –
O=C(Nc1ccccc1-c1cn2c(CN3CCN(Cc4ccccc4)CC3=O)csc2n1)c1cnc2ccccc2n1 [Compound 628] | A′ | A′ | A′ | A′ | A′ | – | – | – | – | – | –
COc1cc(C(=O)Nc2ccccc2-c2nc3ncccc3o2)ccc1CN1CCOCC1 [Compound 631] | A′ | A′ | A′ | A′ | A′ | – | – | – | – | – | –
CN(C)CCOCc1csc2nc(-c3ccccc3NC(=O)c3cnc4ccccc4n3)cn12 [Compound 647] | A′ | A′ | A′ | A′ | A′ | – | – | – | – | – | –
O=C(Nc1ccccc1-c1cn2c(CO)csc2n1)c1cnc2ccccc2n1 [Compound 648] | A′ | A′ | A′ | A′ | A′ | – | – | – | – | – | –
CN1CCN(C(=O)Cc2csc3nc(-c4ccccc4NC(=O)c4cnc5ccccc5n4)cn23)CC1 [Compound 649] | A′ | A′ | A′ | A′ | A′ | – | – | – | – | – | –
COc1cc(NC(=S)Nc2cc(-c3nc4ncccc4o3)ccn2)cc(OC)c1 [Compound 661] | A′ | A′ | A′ | A′ | A′ | – | – | – | – | – | –
O=C(Nc1ccccc1-c1cn2c(CNCC(O)CO)csc2n1)c1cnc2ccccc2n1 (stereo not drawn) [Compound 676] | A′ | A′ | A′ | A′ | A′ | – | – | – | – | – | –
N#Cc1cccc(C(=O)Nc2ccccc2-c2nc3cc(CN4CCOCC4)cnc3s2)c1 [Compound 685] | A′ | A′ | – | – | – | A′ | A′ | – | – | – | –
Cc1csc2nc(-c3ccccc3NC(=O)c3cnc4ccccc4n3)cn12 [Compound 707] | A′ | A′ | – | – | – | A′ | A′ | A′ | – | – | –
COc1cc(OC)cc(C(=O)Nc2ccccc2-c2nc3cc(CN(C)C)cnc3s2)c1 [Compound 722] | A′ | A′ | – | – | – | A′ | A′ | A′ | – | – | –
O=C(Nc1ccccc1-c1nc2cc(CN3CCOCC3)cnc2s1)c1ccc2ccccc2n1 [Compound 724] | A′ | A′ | – | – | – | A′ | A′ | A′ | – | – | –
O=C(Nc1ccccc1-c1nc2ccc(CN3CCNCC3)nc2s1)c1ccc2ccccc2n1 [Compound 729] | A′ | A′ | – | – | – | A′ | A′ | A′ | – | – | –
O=C(Nc1ccccc1-c1nc2cc(CN3CCNCC3)cnc2s1)c1cc(-c2ccccc2)no1 [Compound 732] | A′ | A′ | – | – | – | A′ | A′ | A′ | – | – | –
COc1cc(C(=O)Nc2ccccc2-c2cn3c(C)csc3n2)cc(OC)c1OC [Compound 739] | A′ | A′ | – | – | – | A′ | A′ | A′ | – | – | –
CN1CCN(Cc2csc3nc(-c4ccccc4NC(=O)c4cnc5ccccc5n4)cn23)C(=O)C1 [Compound 741] | A′ | A′ | – | – | – | A′ | A′ | A′ | – | – | –
O=C(Nc1ccccc1-c1cn2c(Cn3ccnc3)csc2n1)c1cnc2ccccc2n1 [Compound 745] | A′ | A′ | – | – | – | A′ | A′ | A′ | – | – | –
C/C=C1\NC(=O)[C@H]2CSSCC/C=C/[C@H](CC(=O)N[C@H](C(C)C)C(=O)N2)OC(=O)[C@H](C(C)C)NC1=O [Depsipeptide, depsipeptide] | – | – | – | – | – | – | – | – | inhibit HDAC activity at micromolar concentrations | – | –
CC(C)(C)NC[C@H](O)COc1nsnc1N1CCOCC1 [timolol] | – | – | – | – | – | – | – | – | – | 30 min | 1 to 2 h
depudecin | – | – | – | – | – | – | – | – | inhibit HDAC at micromolar concentrations | – | –
trichostatin A [TSA] | – | – | – | – | – | – | – | – | potent inhibitor of mammalian HDAC | – | –
